According to US5002931A, “GRF analogs VII” (The Salk Institute for Biological Studies, priority 1987, dated 1991):
Square brackets hold non-standard residues; d marks the D form. Ends that are not written are not given here. Peptide text beside a SMILES is read from it. NMeY = CN[C@@H](Cc1ccc(O)cc1)C(=O)O; Nle = CCCC[C@H](N)C(=O)O

Test system: cells of rat pituitary glands
Experiment: in vitro assay of growth hormone release from cultured rat pituitary cells, GH measured by radioimmunoassay
Format: cell-based
Settings: release of GH at equimolar concentrations, side-by-side with synthetic hpGRF(1-40)-OH standard = 100%; incubation 3 to 4 hours
Experimental: To determine the relative effectiveness of certain representative synthetic peptides to promote the release of growth hormone, in vitro assays are carried out using synthetic hpGRF(1-40)-OH as a standard in side-by-side comparison with equimolar concentrations of the representative analogs which have been synthesized. Cultures are used which include cells of rat pituitary glands removed some three to five days previously. Such cultures are considered optimal for the secretion of growth hormone and are used for the comparative testing, in the general manner described in Vale et al. Endocrinoloqy, 91, 562-572 (1972) and as more particularly described in Vale et al. Endocrinology, 112, 1553-1555 (1983). Incubation with the substance to be tested is carried out for 3 to 4 hours, and aliquots of the culture medium are removed and processed to measure their contents in immunoreactive GH(ir GH) by a well-characterized radioimmunoassay.

**Q.** `CCCC[C@H](NC(=O)[C@@H](NC(=O)[C@H](CC(=O)O)NC(=O)[C@H](CCC(N)=O)NC(=O)[C@H](CC(C)C)NC(=O)[C@H](CC(C)C)NC(=O)[C@@H](CCCCN)NC(=O)[C@H](CCCNC(=N)N)NC(=O)[C@H](C)NC(=O)[C@H](CO)NC(=O)[C@H](CC(C)C)NC(=O)[C@H](CCC(N)=O)NC(=O)CNC(=O)[C@H](CC(C)C)NC(=O)[C@@H](NC(=O)[C@H](CCCCN)NC(=O)[C@H](CCCNC(=N)N)NC(=O)[C@H](Cc1ccc(O)cc1)NC(=O)[C@H](CO)NC(=O)[C@H](CC(N)=O)NC(=O)[C@@H](NC(=O)[C@H](Cc1ccccc1)NC(=O)[C@@H](NC(=O)[C@H](C)NC(=O)[C@H](CC(=O)O)NC(=O)[C@H](C)NC(=O)[C@H](Cc1ccc(O)cc1)NC)[C@@H](C)CC)[C@@H](C)O)C(C)C)[C@@H](C)CC)C(=O)N[C@@H](CO)C(=O)N[C@@H](CCCNC(=N)N)C(N)=O` [[N^a MeTyr^1, D-Lys^21, Nle^27]-hGRF(1-29)-NH] was tested. Which Comparison % did it give?
**A.** 172%

**Q.** How did the Comparison % turn out when “hGRF(1-40)-OH (YADAIFTNSYRKVLGQLSARKLLQDIMSRQQGESNQERGA-OH; UniProt P01286 32-71, looked up, fragment) [synthetic human pancreatic (tumor) GH releasing factor 1-40 free acid, used as standard in the assays, reference compound]” was run?
**A.** 100%

**Q.** How did the Comparison % turn out when `CCCC[C@H](NC(=O)[C@@H](NC(=O)[C@H](CC(=O)O)NC(=O)[C@H](CCC(N)=O)NC(=O)[C@H](CC(C)C)NC(=O)[C@H](CC(C)C)NC(=O)[C@@H](CCCCN)NC(=O)[C@H](CCCNC(=N)N)NC(=O)[C@H](C)NC(=O)[C@H](CO)NC(=O)[C@H](CC(C)C)NC(=O)[C@H](CCC(N)=O)NC(=O)CNC(=O)[C@H](CC(C)C)NC(=O)[C@@H](NC(=O)[C@H](CCCCN)NC(=O)[C@H](CCCNC(=N)N)NC(=O)[C@@H](Cc1ccc(O)cc1)NC(=O)[C@H](CO)NC(=O)[C@H](CC(N)=O)NC(=O)[C@@H](NC(=O)[C@H](Cc1ccccc1)NC(=O)[C@@H](NC(=O)[C@H](C)NC(=O)[C@H](CC(=O)O)NC(=O)[C@H](C)NC(=O)[C@H](Cc1ccc(O)cc1)NC)[C@@H](C)CC)[C@@H](C)O)C(C)C)[C@@H](C)CC)C(=O)N[C@@H](CO)C(=O)N[C@@H](CCCNC(=N)N)C(N)=O` [[N^a MeTyr^1, D-Tyr^10, D-Lys^21, Nle^27]-hGRF(1-29)-NH2] was run?
**A.** 40%

**Q.** How did the Comparison % turn out when `CCCC[C@H](NC(=O)[C@@H](NC(=O)[C@H](CC(=O)O)NC(=O)[C@H](CCC(N)=O)NC(=O)[C@H](CC(C)C)NC(=O)[C@H](CC(C)C)NC(=O)[C@H](CCCCN)NC(=O)[C@H](CCCNC(=N)N)NC(=O)[C@H](C)NC(=O)[C@H](CO)NC(=O)[C@H](CC(C)C)NC(=O)[C@H](CCC(N)=O)NC(=O)[C@H](C)NC(=O)[C@H](CC(C)C)NC(=O)[C@@H](NC(=O)[C@H](CCCCN)NC(=O)[C@H](CCCNC(=N)N)NC(=O)[C@H](Cc1ccc(O)cc1)NC(=O)[C@H](CO)NC(=O)[C@H](CCCCN)NC(=O)[C@@H](NC(=O)[C@H](Cc1ccccc1)NC(=O)[C@@H](NC(=O)[C@H](C)NC(=O)[C@H](CC(=O)O)NC(=O)[C@H](C)NC(=O)[C@H](Cc1ccc(O)cc1)NC)[C@@H](C)CC)[C@@H](C)O)C(C)C)[C@@H](C)CC)C(=O)N[C@@H](CC(N)=O)C(=O)N[C@@H](CCCNC(=N)N)C(N)=O` [[N^a MeTyr^1, Lys^8, Ala^15, Nle^27, Asn^28]-hGRF(1-29)-NH2] (H-[NMeY]ADAIFTKSYRKVLAQLSARKLLQDI[Nle]NR-NH2) was run?
**A.** 556%

**Q.** With `CCCC[C@H](NC(=O)[C@@H](NC(=O)[C@H](CC(=O)O)NC(=O)[C@H](CCC(N)=O)NC(=O)[C@H](CC(C)C)NC(=O)[C@H](CC(C)C)NC(=O)[C@H](CCCCN)NC(=O)[C@H](CCCNC(=N)N)NC(=O)[C@H](C)NC(=O)[C@H](CO)NC(=O)[C@H](CC(C)C)NC(=O)[C@H](CCC(N)=O)NC(=O)[C@H](C)NC(=O)[C@H](CC(C)C)NC(=O)[C@@H](NC(=O)[C@H](CCCCN)NC(=O)[C@H](CCCNC(=N)N)NC(=O)[C@H](Cc1ccc(O)cc1)NC(=O)[C@H](CO)NC(=O)[C@H](CC(=O)O)NC(=O)[C@@H](NC(=O)[C@H](Cc1ccccc1)NC(=O)[C@@H](NC(=O)[C@H](C)NC(=O)[C@H](CC(=O)O)NC(=O)[C@H](C)NC(=O)[C@H](Cc1ccc(O)cc1)NC)[C@@H](C)CC)[C@@H](C)O)C(C)C)[C@@H](C)CC)C(=O)N[C@@H](CC(N)=O)C(=O)N[C@@H](CCCNC(=N)N)C(N)=O` [[N^a MeTyr^1, Asp^8, Ala^15, Nle^27, Asn^28]-hGRF(1-29)-NH2] (H-[NMeY]ADAIFTDSYRKVLAQLSARKLLQDI[Nle]NR-NH2) as the molecule, how does the Comparison % read?
**A.** 192%
